Measurements: US20110059850A1, “PHYTOTOXIC HALOGENATED DERIVATIVES OF BENZOXAZINONES” (UNIVERSIDAD DE CÁDIZ, priority 2006, published 2011)

Legend:
[1] = system: Lepidium sativum L. (watercress); assay: phytotoxicity bioassay in Petri dishes, radicle length; type: in vivo; conditions: sigmoid type dose-response model, pH 6, 25° C., dark
Procedure: (§1) The phytotoxicity bioassays for the compounds object of the invention are performed by means of the protocol of phytotoxicity bioassays in Petri dishes developed by the Grupo de Alelopatía de Cádiz (Cádiz Allelopathy Group) (see, for example: Macías, F. A.; Castellano, D.; Molinillo, J. M. G.; J. Agric. Food Chem. 2000, 48, 6, 2512-2521).
(§2) This assay attempts to imitate the natural conditions of the action of the products to be assayed on seeds of selected plant species, therefore the products are supplied in the form of aqueous solution in a Petri dish in which a certain number of seeds of each receiving species is introduced. The concentration range used allows observing the relationship between the phytotoxic activity of the product and its concentration. The dilutions assayed were 10^−3 M, 5·10^−4 M, 10^−4 M, 5·10^−5 M, 10^−5 M, 5·10^−6 M, 10^−6 M, 5·10^−7, 10^−7 and 5·10^−8. These solutions are buffered at pH=6 using to that end a 10 mM solution of 2-[N-morpholino]-ethanesulfonic acid (MES) the pH of which is adjusted to the desired value by means of adding a 1M solution of NaOH. The blank of this experiment is distilled and deionized water also buffered with MES but in which there is no product dissolved. […]

[2] = system: Lolium rigidum L. (ryegrass), common biotype and biotype multiresistant to herbicides SLR31; assay: phytotoxicity bioassay in Petri dishes, L. rigidum biotypes; type: in vivo; conditions: common biotype versus multiresistant biotype SLR31
Procedure: as §1, §2

SMILES	IC50 [1]	most affected L. rigidum biotype [2]
O=C1COc2ccc(Cl)cc2N1O [VII, 6-chloro-4-hydroxy-(2H)-1,4-benzoxazin-3(4H)-one]	~58 nM	the opposite trend
O=C1COc2ccc(F)cc2N1O [Compound II, 6-fluoro-4-hydroxy-(2H)-1,4-benzoxazin-3(4H)-one]	–	the multiresistant biotype was the most affected
